In patent US20220389003A1, “4-SUBSTITUTED INDOLE AND INDAZOLE SULFONAMIDO DERIVATIVES AS PARG INHIBITORS” (IDEAYA BIOSCIENCES, INC., priority 2019, published 2022):
Like-named read-outs stand apart in the source and are kept apart here.

Key:
[1] = system: HCC1806-XRCC1 KD (knock down) cells; assay: Cellular viability assay (Cell Titer-Glo); assay type: cell-based; conditions: HCC1806-shXRCC1 cells, 4 days of incubation, read-out: PARGi cell viability
Experimental: HCC1806-XRCC1 KD (knock down) cells were plated at 2000 cells/well in 96-well white plates with clear flat bottom. After 24 hours, the compounds of the disclosure were added starting at 30 μM for a 9-point dose response curve at 1:3 dilution. The compounds of the disclosure were added by Tecan digital dispenser excluding the outermost wells of the plate. All treatments were done in duplicates. After 4 days of incubation, 50 ul of Cell Titer-Glo (Promega) was added per well. After incubation with the reagent for 15 minutes, luminescence was read using a plate reader (TECAN). Average values of DMSO treated wells in a plate was calculated. All data points were normalized to that of the average DMSO value. The % of control for each sample compared to DMSO treated control samples. Curves are fit as % of control vs. log [compound concentration] using a 4 parameter inhibition model (Levenberg-Marquardt algorithm):
Fit=(A+((B−A)/(1+((C/x)^D))))

PARG [2] = biological target: T1, PARG (Homo sapiens, UniProt Q86W56); assay: Inhibition of PARG enzymatic assay (TR-FRET enzymatic IC50 assay); assay type: biochemical; parameters: purchased Peak Proteins; conditions: hPARG 250 pM, biotinylated-PARylated PARP substrate 30 nM
Experimental: PARG enzyme was incubated with compound or vehicle (DMSO) and the biotinylated-PARylated PARP substrate in a microtiter plate. After adding detection antibody and streptavidin-europium, and then incubating, the plate was read for fluorescence intensity. The low control (DMSO) with low fluorescence intensity represents no inhibition of enzymatic reaction while the high control (no enzyme) with high fluorescence intensity represents full inhibition of enzymatic reaction.
• PARG • hPARG: 250 pM, His-tagged, Peak Proteins, 0.96 mg/mL (8.58 μM) • Substrate: 30 nM • Reaction time: 70 minutes • Substrate: hPARP1, His- and TEV-tagged, Peak Proteins, 14 μM • Detection Antibody: anti-His monoclonal antibody-ULight, Perkin Elmer catalog #TRF0105-M • Streptavidin-Europium: Perkin Elmer catalog #AD0062 • Assay buffer: 50 mM Tris-HCl pH 7.4, 50 mM KCl, 3 mM EDTA, 0.4 mM EGTA, 1 mM DTT, 0.01% Tween 20, 0.01% BSA • Temperature: 23° C. • Total volume: 20 μL
• 0% inhibition control: DMSO • 100% inhibition control: No enzyme
• 1. Transfer 5 μL of 3× final concentration of test compounds or DMSO to the appropriate wells of a microtiter plate. • 2. Centrifuge the plate at 1000 rpm for 1 minute. • 3. Transfer 5 μL of 3× final concentration of enzyme in assay buffer or assay buffer alone to the appropriate wells. • 4. Centrifuge the plate at 1000 rpm for 1 minute. • 5. Incubate the plate at room temperature for 1 hour. • 6. Transfer 5 μL of 3× substrate in assay buffer to all the test wells. • 7. Centrifuge the plate at 1000 rpm for 1 minute. • 8. Incubate the plate at room temperature for 10 minutes. • 9. Transfer 5 μL of 3× mixture of detection antibody and streptavidin-europium in assay buffer to all the test wells. • 10. Centrifuge the plate at 1000 rpm for 1 minute. • 11. Incubate the plate at room temperature for 1 hour. • 12. Read the plate on a plate reader (e.g., Infinite M1000).

PARG [3] = biological target: T1, PARG; assay: Inhibition of PARG cellular assay (PAR foci in HeLa cells after MMS); assay type: cell-based; parameters: endogenous in cells; host or cells: HeLa; conditions: compound 1 h then MMS 1 h
Experimental: The ability of the compounds disclosed herein to inhibit PARG was determined as described below. Briefly, after treating HeLa cells with the compounds of the disclosure for 1 h, followed by treatment with DNA alkylating agent methylmethanesulfonate (MMS) for an additional 1 h, the cells were fixed in 3.7% formaldehyde. The cells were permeabilized in 0.5% Triton-X100, blocked in 5% goat serum, and incubated with mouse monoclonal antibody against poly (ADP) ribose (PAR) polymer overnight at 4° C. The cells were washed and incubated with an Alexafluor 488-linked secondary antibody together with a nuclear stain (Hoechst 33342) for an hour at room temperature. After washing, images of the cells were captured and analyzed on a high content imaging microscope and software. Two measurement of PAR chain were quantified with the mean intensity over background of the nuclear foci (fluorescent signal at 488 nm range 0.3-2.0 μm foci) quantified as PAR foci (PAR Foci IC50). The cells with a PAR foci signal >1.3 was considered as positive (PAR % positive IC50), and the percentage positive cells are quantified.

T1 sequence (Q86W56 whole entry): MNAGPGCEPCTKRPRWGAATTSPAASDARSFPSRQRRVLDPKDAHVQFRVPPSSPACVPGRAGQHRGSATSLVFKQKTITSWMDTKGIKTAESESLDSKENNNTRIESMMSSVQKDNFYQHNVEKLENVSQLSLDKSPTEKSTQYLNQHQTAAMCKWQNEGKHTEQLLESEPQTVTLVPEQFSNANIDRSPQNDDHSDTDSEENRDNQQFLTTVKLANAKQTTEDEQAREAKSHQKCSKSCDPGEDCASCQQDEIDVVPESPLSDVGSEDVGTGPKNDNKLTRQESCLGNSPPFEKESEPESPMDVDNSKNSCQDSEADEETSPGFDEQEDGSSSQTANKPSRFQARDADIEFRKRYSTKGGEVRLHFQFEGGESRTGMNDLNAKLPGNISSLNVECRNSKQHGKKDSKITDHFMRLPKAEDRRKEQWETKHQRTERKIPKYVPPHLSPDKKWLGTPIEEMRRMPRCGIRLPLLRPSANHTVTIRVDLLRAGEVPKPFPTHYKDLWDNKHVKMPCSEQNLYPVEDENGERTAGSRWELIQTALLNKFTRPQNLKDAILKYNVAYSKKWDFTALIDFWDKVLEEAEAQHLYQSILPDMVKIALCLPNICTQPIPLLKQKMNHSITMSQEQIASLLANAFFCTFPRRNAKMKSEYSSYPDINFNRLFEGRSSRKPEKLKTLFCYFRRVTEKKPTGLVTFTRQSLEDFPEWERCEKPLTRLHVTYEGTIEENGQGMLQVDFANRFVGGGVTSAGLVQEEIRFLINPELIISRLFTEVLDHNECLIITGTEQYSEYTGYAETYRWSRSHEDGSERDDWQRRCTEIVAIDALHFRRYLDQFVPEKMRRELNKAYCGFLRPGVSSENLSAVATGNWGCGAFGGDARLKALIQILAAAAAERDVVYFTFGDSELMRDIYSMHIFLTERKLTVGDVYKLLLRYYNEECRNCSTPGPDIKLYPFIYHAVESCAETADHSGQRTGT

Molecule | IC50 ([1]; 96 h) [µM] | IC50 (PARG [2]) [µM] | IC50 (PARG [3]) [µM] | IC50 [1] [µM]
N#CC1(NS(=O)(=O)c2cc(N3CC[C@H]4COC[C@H]4C3)c3cnn(-c4nnc(C(F)F)s4)c3c2)CC1 (relative stereo) [Example 56, 1-[({1-[5-(difluoromethyl)(1,3,4-thiadiazol-2-yl)]-4-(cis-8-oxa-3-azabicyclo-[4.3.0]non-3-yl)-1H-indazol-6-yl}sulfonyl)amino]cyclopropanecarbonitrile] | 10 to 20 | 0.3 to 1 | – | –
N#CC1(NS(=O)(=O)c2cc(-c3ccc4cn[nH]c4c3)c3cnn(-c4nnc(C(F)F)s4)c3c2)CC1 [Example 2, 1-[({4-(1H-indazol-6-yl)-1-[5-(difluoromethyl)(1,3,4-thiadiazol-2-yl)]-1H-indazol-6-yl}sulfonyl)amino]cyclopropanecarbonitrile] | 20 to 30 | 1 to 10 | – | –
CN(C)C(=O)c1cccc(-c2cc(S(=O)(=O)NC3(C#N)CC3)cc3c2cnn3-c2nnc(C(F)F)s2)c1 [Example 4, [3-(1-[5-(difluoromethyl)(1,3,4-thiadiazol-2-yl)]-6-{[(cyanocyclopropyl)amino]sulfonyl}(1H-indazol-4-yl))phenyl]-N,N-dimethylcarboxamide] | 20 to 30 | 0.3 to 1 | – | –
N#CC1(NS(=O)(=O)c2cc(N3CCC4(COC4)C3)c3cnn(-c4nnc(C(F)F)s4)c3c2)CC1 [Example 34, 1-[({1-[5-(difluoromethyl)(1,3,4-thiadiazol-2-yl)]-4-(2-oxa-6-azaspiro[3.4]oct-6-yl)-1H-indazol-6-yl}sulfonyl)amino]cyclopropanecarbonitrile] | 20 to 30 | 0.3 to 1 | – | –
N#CC1(NS(=O)(=O)c2cc(N3CCC(C(F)F)CC3)c3cnn(-c4nnc(C(F)F)s4)c3c2)CC1 [Example 64, 1-[({1-[5-(difluoromethyl)(1,3,4-thiadiazol-2-yl)]-4-[4-(difluoromethyl)piperidyl]-1H-indazol-6-yl}sulfonyl)amino]cyclopropanecarbonitrile] | 20 to 30 | 1 to 10 | – | –
CNC(=O)C1CN(c2cc(S(=O)(=O)NC3(C#N)CC3)cc3c2cnn3-c2nnc(C(F)F)s2)C1 [Example 75, 1-(6-(N-(1-cyanocyclopropyl)sulfamoyl)-1-(5-(difluoromethyl)-1,3,4-thiadiazol-2-yl)-1H-indazol-4-yl)-N-methylazetidine-3-carboxamide] | 20 to 30 | 0.3 to 1 | – | –
CN1CC2(CCN(c3cc(S(=O)(=O)NC4(C#N)CC4)cc4c3cnn4-c3nnc(C(F)F)s3)CC2)C1 [Example 92, 1-[({1-[5-(difluoromethyl)(1,3,4-thiadiazol-2-yl)]-4-(2-methyl-2,7-diazaspiro-[3.5]non-7-yl)-1H-indazol-6-yl}sulfonyl)amino]cyclopropanecarbonitrile] | 10 to 20 | 0.3 to 1 | – | –
N#CC1(NS(=O)(=O)c2cc(N3CCC(F)(F)CC3)c3cnn(-c4nnc(C(F)F)s4)c3c2)CC1 [Example 105, 1-[({1-[5-(difluoromethyl)(1,3,4-thiadiazol-2-yl)]-4-(4,4-difluoropiperidyl)-1H-indazol-6-yl}sulfonyl)amino]cyclopropanecarbonitrile] | – | 1 to 10 | 0.3 to 1 | –

Results, then the molecule that gave them:

IC50 ([1]; 96 h) [µM] | IC50 (PARG [2]) [µM] | IC50 (PARG [3]) [µM] | IC50 [1] [µM] | Molecule
10 to 20 | 0.1 to 0.3 | – | – | CN(C)C(=O)c1ccc(-c2cc(S(=O)(=O)NC3(C#N)CC3)cc3c2cnn3-c2nnc(C(F)F)s2)cc1 [Example 3, [4-(1-[5-(difluoromethyl)(1,3,4-thiadiazol-2-yl)]-6-{[(cyanocyclopropyl)amino]sulfonyl}(1H-indazol-4-yl))phenyl]-N,N-dimethylcarboxamide]
10 to 20 | ≤ 0.1 | – | – | Cn1cnnc1N1CCN(c2cc(S(=O)(=O)NC3(C#N)CC3)cc3c2cnn3-c2nnc(C(F)F)s2)CC1 [Example 36, 1-[({1-[5-(difluoromethyl)(1,3,4-thiadiazol-2-yl)]-4-[4-(4-methyl(1,2,4-triazol-3-yl))piperazinyl]-1H-indazol-6-yl}sulfonyl)amino]cyclopropanecarbonitrile]
10 to 20 | 0.1 to 0.3 | – | – | CNC(=O)C1CCN(c2cc(S(=O)(=O)NC3(C#N)CC3)cc3c2cnn3-c2nnc(C(F)F)s2)C1 (stereo not drawn) [Example 53, [1-(1-[5-(difluoromethyl)(1,3,4-thiadiazol-2-yl)]-6-{[(cyanocyclopropyl)amino]sulfonyl}(1H-indazol-4-yl))pyrrolidin-3-yl]-N-methylcarboxamide]
10 to 20 | 0.1 to 0.3 | – | – | CN(C)C(=O)C1CCN(c2cc(S(=O)(=O)NC3(C#N)CC3)cc3c2cnn3-c2nnc(C(F)F)s2)C1 (stereo not drawn) [Example 54, [1-(1-[5-(difluoromethyl)(1,3,4-thiadiazol-2-yl)]-6-{[(cyanocyclopropyl)amino]sulfonyl}(1H-indazol-4-yl))pyrrolidin-3-yl]-N,N-dimethylcarboxamide]
1 to 10 | ≤ 0.1 | – | – | COC(=O)N1CCN(c2cc(S(=O)(=O)NC3(C#N)CC3)cc3c2cnn3-c2nnc(C(F)F)s2)CC1 [Example 58, methyl 4-(1-[5-(difluoromethyl)(1,3,4-thiadiazol-2-yl)]-6-{[(cyanocyclopropyl)amino]sulfonyl}-1H-indazol-4-yl)piperazinecarboxylate]
1 to 10 | ≤ 0.1 | – | – | N#CC1(NS(=O)(=O)c2cc(N3CCN4C(=O)OC[C@H]4C3)c3cnn(-c4nnc(C(F)F)s4)c3c2)CC1 [Example 61, 1-[({4-((1R)-7-oxo-8-oxa-3,6-diazabicyclo[4.3.0]non-3-yl)-1-[5-(difluoromethyl) (1,3,4-thiadiazol-2-yl)]-1H-indazol-6-yl}sulfonyl)amino]cyclopropanecarbonitrile]
10 to 20 | ≤ 0.1 | – | – | CN1CCCN(c2cc(S(=O)(=O)NC3(C#N)CC3)cc3c2cnn3-c2nnc(C(F)F)s2)CC1 [Example 63, 1-[({1-[5-(difluoromethyl)(1,3,4-thiadiazol-2-yl)]-4-(4-methyl(1,4-diazaperhydroepinyl))-1H-indazol-6-yl}sulfonyl)amino]cyclopropanecarbonitrile]
1 to 10 | ≤ 0.1 | – | – | CNC(=O)N1CCN(c2cc(S(=O)(=O)NC3(C#N)CC3)cc3c2cnn3-c2nnc(C(F)F)s2)CC1 [Example 74, 4-(6-(N-(1-cyanocyclopropyl)sulfamoyl)-1-(5-(difluoromethyl)-1,3,4-thiadiazol-2-yl)-1H-indazol-4-yl)-N-methylpiperazine-1-carboxamide]
1 to 10 | ≤ 0.1 | – | – | CN(C)CCN(C)C(=O)N1CCN(c2cc(S(=O)(=O)NC3(C#N)CC3)cc3c2cnn3-c2nnc(C(F)F)s2)CC1 [Example 76, [4-(1-[5-(difluoromethyl)(1,3,4-thiadiazol-2-yl)]-6-{[(cyanocyclopropyl)amino]sulfonyl}(1H-indazol-4-yl))piperazinyl]-N-[2-(dimethylamino)ethyl]-N-methylcarboxamide]
– | 0.3 to 1 | – | 10 to 20 | [4-(1-[5-(difluoromethyl)(1,3,4-thiadiazol-2-yl)]-6-{[(cyanocyclopropyl)amino]sulfonyl}(1H-indazol-4-yl))(1,4-diazaperhydroepinyl)]-N-methylcarboxamide [Example 31]
